# Reference: the supplement of paper PMC10307832
# Legend:
# Test in all cases: relative viability (nuclei count vs DMSO), 5 days (fraction); higher = more cells survive
# [1] = compound: CN1CCN(c2ccc3nc(-c4c(N)c5c(F)cccc5[nH]c4=O)[nH]c3c2)CC1 [Dovitinib] + COc1cc2c(Oc3ccc(NC(=O)C4(C(=O)Nc5ccc(F)cc5)CC4)cc3F)ccnc2cc1OCCCN1CCOCC1 [Foretinib] (partner 0.25 µM)
# Method in brief: (§1)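 Five library-drug doses in √10 steps were combined with a fixed anchor-drug dose, or a single drug was given alone, by pin tool to lung cancer cell lines in 1536-well plates the day after seeding. Nuclei were stained and counted after 5 days. Relative viability is the nuclei count in treated wells over that in vehicle wells, taken as the median of duplicate plates.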
# [2] = compound: CN1CCN(c2ccc3nc(-c4c(N)c5c(F)cccc5[nH]c4=O)[nH]c3c2)CC1 [Dovitinib] + CS(=O)(=O)N1CCN(Cc2cc3nc(-c4cccc5[nH]ncc45)nc(N4CCOCC4)c3s2)CC1 [Pictilisib] (partner 1 µM)
# Method in brief: as §1
# [3] = compound: CN1CCN(c2ccc3nc(-c4c(N)c5c(F)cccc5[nH]c4=O)[nH]c3c2)CC1 [Dovitinib] + NC(=O)Nc1cc(-c2cccc(F)c2)sc1C(=O)N[C@H]1CCCNC1 [AZD7762] (partner 0.2 µM)
# Method in brief: as §1
# [4] = compound: CN1CCN(c2ccc3nc(-c4c(N)c5c(F)cccc5[nH]c4=O)[nH]c3c2)CC1 [Dovitinib] + O=C(CCCCCCC(=O)Nc1ccccc1)NO [Vorinostat] (partner 1 µM)
# Method in brief: as §1
Cell Line,relative viability ([1]; first compound 0.02 µM),relative viability ([1]; first compound 0.06325 µM),relative viability ([1]; first compound 0.2 µM),relative viability ([1]; first compound 0.6325 µM),relative viability ([1]; first compound 2 µM),relative viability ([2]; first compound 0.02 µM),relative viability ([2]; first compound 0.06325 µM),relative viability ([2]; first compound 0.2 µM),relative viability ([2]; first compound 0.6325 µM),relative viability ([2]; first compound 2 µM),relative viability ([3]; first compound 0.02 µM),relative viability ([3]; first compound 0.06325 µM),relative viability ([3]; first compound 0.2 µM),relative viability ([3]; first compound 0.6325 µM),relative viability ([3]; first compound 2 µM),relative viability ([4]; first compound 0.02 µM),relative viability ([4]; first compound 0.06325 µM),relative viability ([4]; first compound 0.2 µM),relative viability ([4]; first compound 0.6325 µM),relative viability ([4]; first compound 2 µM)
NCI-H1975,1.01,0.962,0.927,0.989,0.975,0.299,0.271,0.325,0.324,0.274,0.708,0.577,0.728,0.738,0.653,0.692,0.728,0.662,0.734,0.682
NCI-H1437,1.24,1.29,1.22,1.2,1.27,0.512,0.537,0.434,0.494,0.464,1.19,1.09,1.22,1.11,1.09,0.884,0.847,0.9,0.803,0.745
NCI-H1651,0.899,0.792,0.836,0.796,0.721,0.577,0.528,0.598,0.551,0.5,0.45,0.507,0.505,0.466,0.429,0.491,0.593,0.539,0.597,0.543
LCLC-103H,0.901,0.674,0.826,0.79,0.764,0.661,0.555,0.645,0.614,0.577,0.777,0.802,0.784,0.704,0.699,0.731,0.746,0.756,0.872,0.8
NCI-H1666,1.02,0.975,0.961,0.99,0.961,0.607,0.533,0.548,0.322,0.375,0.876,0.859,0.882,0.855,0.812,1.15,0.919,1.11,1.04,1.05
NCI-H1734,0.9,0.813,0.834,0.735,0.834,0.475,0.457,0.413,0.437,0.397,0.532,0.505,0.475,0.583,0.71,0.832,0.773,0.784,0.785,0.875
EPLC-272H,0.634,0.841,0.732,0.747,0.687,0.35,0.277,0.311,0.383,0.353,0.281,0.218,0.197,0.218,0.239,0.564,0.522,0.434,0.402,0.367
BEN,0.52,0.566,0.68,0.698,0.614,0.565,0.548,0.553,0.661,0.493,0.692,0.697,0.637,0.877,0.597,0.551,0.542,0.578,0.598,0.57
